Results: patent US20170290814A1, “METHODS OF TREATMENT OF CHOLESTASIS AND FIBROSIS” (GENFIT, priority 2016, published 2017)

Experiments:
[1] = tested on: TGFβ1-induced expression of COL1A1 protein in human HSC; experiment: Col1α1 ELISA on supernatants of TGFβ1-activated human HSC; format: cell-based; conditions: 48 h
Protocol: The human primary hepatic stellate cells (hHSC) (Innoprot) were cultured in STeCM medium (ScienCell cat #5301) that was supplemented with 2% fetal bovine serum (FBS, ScienCell cat #0010), 1% penicillin/streptomycin (ScienCell cat #0503) and stellate cell growth supplement (SteCGS; ScienCell cat #5352). Cell culture flasks were coated with Poly-L Lysine (Sigma cat #P4707) for a better adherence.
The human primary hepatic stellate cells (hHSC) (Innoprot) were cultured under standard conditions, as described above. The cells were subsequently plated at a density of 2×10^4cells/well or 6,5×10^3 cells/well into 96-well or 384-well plates respectively. The next day, cell-culture medium was removed, and cells were washed with PBS (Invitrogen cat #14190). Then, hHSC were deprived for 24 hours in serum-free and SteCGS-free medium. For the treatments with compounds of formula (I), the serum-deprived hHSC were preincubated for 1 hour with the compounds followed by addition of the profibrogenic stimuli TGFβ1 (PeproTech cat #100-21, 1 ng/mL) in serum-free and SteCGS-free medium for an additional 48 hour period. At the end of treatment, the cell culture supernatants of treated-HSC were transferred into a new plate before storage at −20° C.The cells were washed with PBS (Invitrogen, cat #14190) before the addition of lysis buffer (CelLytic™ MT reagent; Sigma #C3228). Plates were then incubated for 30 min on ice using a plate shaker, before storage at −20° C.
The level of the human pro-Collagen α1 (col1α1) was measured using a Sandwich ELISA (R&D systems,). Briefly, the wells of an ELISA plate were first coated with the capture antibody at room temperature overnight. After 3 washes in PBS +0.05% Tween 20, a blocking solution consisting of PBS +1% BSA was added for one hour followed by another washing cycle. […]
Serum-deprived HSC were preincubated for 1 hour with RM-5061 before the activation with the profibrogenic cytokine TGFβ1 (1 ng/ml). After 48 hours of incubation, the cellular α-SMA content as well as secreted COL1A1 were measured by ELISA. […]

[2] = tested on: TGFβ1-induced expression of α-SMA protein in human intestinal fibroblasts (InMyoFib); experiment: α-SMA ELISA in TGFβ1-activated human intestinal myofibroblasts; format: cell-based; conditions: TGFβ1 3 ng/ml, 48 h
Protocol: Cpd.5 was added to serum-deprived intestinal fibroblasts (InMyoFib) 1 hour before the activation with TGFβ1 (3 ng/ml). After 48 hours of incubation, the expression of α-SMA was measured by ELISA. The obtained values were transformed into percentage inhibition over TGFβ1 control. Data are presented as mean (triplicates)±standard deviation (SD). Statistical analyses were performed by one-way ANOVA followed by Bonferroni post-hoc tests, using Sigma Plot 11.0 software. [*: p<0.05; **: p<0.01; ***: p<0.001 (comparison versus TGFβ1 3 ng/mL group)].
The Human Intestinal Myofibroblast (InMyoFib) (Lonza) were cultured in Smooth Muscle Cell Basal Medium (SmBM-2 TM) (Lonza cat #CC-3181) that was supplemented with SmGMTM-2 BulletKit TM (Lonza cat #CC-4149). The complete medium contains 5% fetal bovine serum. For the activation experiments with TGFβ1, the inMyoFib were plated at a density of 10×10^3 cells per well in 96-well plates. The next day, cell-culture medium was removed, and cells were washed with PBS (Invitrogen cat #14190). InMyoFib were deprived for 24 hours in serum-free, insulin-free and rhFGF-B-free medium. […]
The level of α-SMA was measured using a Sandwich ELISA. […]

Row | Compound | effect on COL1A1 in human HSC ([1]; TGFβ1 1 ng/ml) | IC50 ([1]; secreted COL1A1, TGFβ1 1 ng/ml) [nM] | Max % I Over TGFβ, COL1A1 ([1]; secreted COL1A1, TGFβ1 1 ng/ml) [%] | effect on TGFβ1-induced α-SMA in human intestinal fibroblasts [2]
1 | CC(C)(C)[C@H](N)C(=O)Oc1ccccc1C(=O)Nc1ncc([N+](=O)[O-])s1 [RM-5061, (S)-2-(5-nitrothiazol-2-ylcarbamoyl)phenyl 2-amino-3,3-dimethylbutanoate] | reduced in a comparable manner | 2670 | 43 | –
2 | [2H]C([2H])([2H])C(=O)Oc1ccccc1C(=O)Nc1ncc([N+](=O)[O-])s1 [Cpd.5, 2-[(5-nitro-1,3-thiazol-2-yl)carbamoyl]phenyl (d3)ethanoate] | – | – | – | inhibits
